Eleven compounds from ChEMBL document CHEMBL1201862, “PubChem BioAssay data set” (2004) can be followed below.

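Tested at 5 concentrations; 48 h exposure; 96-well plates; endpoints linearly interpolated, else capped at highest concentration. GI50 = concentration required for 50% inhibition of growth.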 Active and inactive are the calls of the source. Cut-off read from the data, not from the text of the source: active = GI50 up to about 1.1 µM and inactive = higher.

Some test systems named below: HT-29; M14; CAKI-1; CCRF-CEM; OVCAR-5; NCI-H522; LOX IMVI; SF-539; Hs-578T; SK-MEL-28; MOLT-4; OVCAR-4; UO-31; ACHN; HOP-62; K562; NCI-H226; DU-145; MCF7; NCI/ADR-RES.
Holding throughout (test): NCI-60 cell line screen, 48 h

As for `O=C(c1ccc(Cl)cc1)c1cnc(Nc2ccccc2Cl)s1`, the GI50 is 27.1 µM (inactive) in the test with HT-29; 19.7 µM (inactive) in the test on M14; 17.3 µM (inactive) with CAKI-1; > 100 µM (inactive) in the test on CCRF-CEM; 29.8 µM (inactive) in the test with OVCAR-5; 23 µM (inactive) in the test on NCI-H522. In addition, the GI50 was 36 µM (inactive) in the test with LOX IMVI; 27.5 µM (inactive) in the test with SF-539; 32.4 µM (inactive) in the test on Hs-578T; 16.6 µM (inactive) in the test with SK-MEL-28; > 100 µM (inactive) in the test with MOLT-4; 33.4 µM (inactive) in the test with OVCAR-4. Also, the GI50 in the test on UO-31 is 21.6 µM (inactive); in the test on ACHN, 18.9 µM (inactive); in the test with HOP-62, 25.1 µM (inactive); in the test with K562 it was > 100 µM (inactive); in the test on NCI-H226 it was 25.8 µM (inactive); in the test on DU-145, 20.3 µM (inactive). For the same compound, the GI50 in the test with MCF7 is 31.5 µM (inactive).
Turning to `CC(C)Cc1cnc(CC(C)C)c(=O)[nH]1`, the GI50 in the test with HT-29, in the test on M14, with CAKI-1, with CCRF-CEM, in the test on OVCAR-5 and with LOX IMVI was > 100 µM (inactive) in each case. The GI50 in the test with Hs-578T, in the test with SK-MEL-28, in the test with MOLT-4, in the test on OVCAR-4, in the test on UO-31 and with ACHN was > 100 µM (inactive) each time. For the same compound, the GI50 in the test with HOP-62, with K562, with DU-145 and in the test with MCF7 was > 100 µM (inactive) each time.
Regarding `CCN(CC)C(=O)C1=C(C)NC(C)=C(C(=O)N(CC)CC)C1`, the GI50 in the test with M14, with CAKI-1, in the test with CCRF-CEM, in the test on OVCAR-5, with NCI-H522 and in the test on LOX IMVI was > 100 µM (inactive) throughout. Moreover, the GI50 in the test on SF-539 is > 100 µM (inactive); with Hs-578T, 44.7 µM (inactive); with SK-MEL-28, > 100 µM (inactive); with MOLT-4, > 100 µM (inactive); in the test with OVCAR-4 it was > 100 µM (inactive); in the test with UO-31, 81.1 µM (inactive). The GI50 in the test on ACHN is > 100 µM (inactive); in the test with HOP-62 it was > 100 µM (inactive); with K562, 41.4 µM (inactive); with DU-145 it was > 100 µM (inactive); with MCF7, > 100 µM (inactive).
Regarding `COC(=O)C(=O)C(C(=O)C(=O)Nc1ccccc1C(=O)OC)c1nc2ccc(C(=O)c3ccccc3)cc2nc1O` (stereo not drawn), the GI50 in the test with HT-29 was 41.1 µM (inactive); with M14, > 100 µM (inactive); with CAKI-1, 30.5 µM (inactive); in the test with NCI/ADR-RES it was 18.8 µM (inactive); in the test with OVCAR-5, > 100 µM (inactive); in the test with NCI-H522, 24.1 µM (inactive). Further, the GI50 in the test with LOX IMVI was 87.3 µM (inactive); with SF-539, > 100 µM (inactive); in the test on Hs-578T, 33.2 µM (inactive); in the test on SK-MEL-28, 90.2 µM (inactive); in the test with OVCAR-4, 24.9 µM (inactive); in the test with UO-31 it was 31.7 µM (inactive). Further, the GI50 in the test on ACHN is 52.6 µM (inactive); with HOP-62 it was 55 µM (inactive); in the test on K562 it was 36.1 µM (inactive); with NCI-H226, > 100 µM (inactive); in the test on MCF7, 66.5 µM (inactive).
Regarding `COc1ccccc1C1CC(=O)CC(c2ccccc2OC)C12C(=O)NC(=S)NC2=O` (stereo not drawn), the GI50 in the test with HT-29 was 73.8 µM (inactive); with M14, 88.3 µM (inactive); with CAKI-1, 68.9 µM (inactive); in the test on CCRF-CEM, 46.6 µM (inactive); in the test with NCI/ADR-RES, > 100 µM (inactive); in the test on OVCAR-5, > 100 µM (inactive). Moreover, the GI50 in the test with NCI-H522 is 51.3 µM (inactive); in the test on LOX IMVI, 33.1 µM (inactive); in the test on SF-539, 81.8 µM (inactive); in the test with SK-MEL-28, 32.4 µM (inactive); with MOLT-4, 35.7 µM (inactive); with OVCAR-4, 99.8 µM (inactive). The GI50 is 87.9 µM (inactive) with UO-31; 28.2 µM (inactive) in the test with ACHN; > 100 µM (inactive) with HOP-62; 47.6 µM (inactive) in the test on K562; > 100 µM (inactive) in the test on NCI-H226; 57.9 µM (inactive) with DU-145. Also, the GI50 in the test on MCF7 is 46.8 µM (inactive).
As to `CC(=O)c1cccc(NC(=O)C(=O)NNc2nnc(S)n2N)c1`, the GI50 is 9.4 µM (inactive) with HT-29; 1.89 µM (inactive) in the test with M14; 17.3 µM (inactive) with CAKI-1; 3.48 µM (inactive) in the test on CCRF-CEM; 17.3 µM (inactive) in the test on OVCAR-5; 6.37 µM (inactive) in the test with NCI-H522. In addition, the GI50 with LOX IMVI is 1.64 µM (inactive); in the test on SF-539, 6.18 µM (inactive); in the test with Hs-578T, 2 µM (inactive); in the test on SK-MEL-28, 6.89 µM (inactive); with MOLT-4 it was 3.6 µM (inactive); in the test with OVCAR-4 it was 10.1 µM (inactive). The GI50 was 9.16 µM (inactive) with UO-31; 7.33 µM (inactive) in the test on ACHN; 12.1 µM (inactive) in the test on HOP-62; 4.85 µM (inactive) in the test on K562; 12.2 µM (inactive) in the test on NCI-H226; 6.58 µM (inactive) in the test on DU-145. Also, the GI50 with MCF7 is 4.27 µM (inactive).
Regarding `O=c1cnc2cc3ccccc3cc2[nH]1`, the GI50 in the test with HT-29, with M14, in the test on CAKI-1, with CCRF-CEM, in the test with NCI/ADR-RES and in the test on OVCAR-5 was > 100 µM (inactive) each time. Also, the GI50 with NCI-H522, in the test with LOX IMVI, in the test on Hs-578T, in the test on SK-MEL-28, in the test with MOLT-4 and in the test with OVCAR-4 was > 100 µM (inactive) each time. The GI50 is 46.9 µM (inactive) in the test on UO-31; > 100 µM (inactive) in the test with ACHN; > 100 µM (inactive) with HOP-62; > 100 µM (inactive) in the test with K562; > 100 µM (inactive) in the test on NCI-H226; > 100 µM (inactive) with MCF7.
On to `CC(=O)NC1C(CO)O[C@@H]2OC(C)(C)O[C@H]12` (stereo partly drawn), for which the GI50 with HT-29, in the test on M14, in the test on CAKI-1, in the test on CCRF-CEM, in the test on NCI/ADR-RES and in the test on OVCAR-5 was > 100 µM (inactive) each time. Also, the GI50 in the test with NCI-H522, with LOX IMVI, in the test on SF-539, in the test on Hs-578T, with SK-MEL-28 and in the test with MOLT-4 was > 100 µM (inactive) each time. The GI50 in the test on OVCAR-4, with UO-31, in the test on ACHN, in the test on HOP-62 and in the test on MCF7 was > 100 µM (inactive) each time.
For `CCCCCC(/C=C/C1CCC(=O)C1)OCOCCOC` (stereo not drawn), the GI50 in the test on HT-29 was 23.4 µM (inactive); with M14, 34 µM (inactive); in the test on CAKI-1, 31.5 µM (inactive); with CCRF-CEM it was 35.3 µM (inactive); in the test with NCI/ADR-RES, 30 µM (inactive); with OVCAR-5 it was > 100 µM (inactive). Further, the GI50 with NCI-H522 is 17.1 µM (inactive); in the test on LOX IMVI, 24.3 µM (inactive); with SF-539, 19.8 µM (inactive); in the test on SK-MEL-28, > 77.3 µM (inactive); in the test on MOLT-4, 15.8 µM (inactive); in the test with OVCAR-4, 47.9 µM (inactive). The GI50 was 17.9 µM (inactive) in the test on UO-31; 22.3 µM (inactive) in the test with ACHN; > 100 µM (inactive) in the test on HOP-62; 25.8 µM (inactive) with K562; 29.1 µM (inactive) in the test with NCI-H226; > 100 µM (inactive) in the test on DU-145. Also, in the test on MCF7, the GI50 was 33.5 µM (inactive).
Turning to `CN(C)CCCNC(=O)c1cc(NC(=O)c2cc(NC(=O)[C@@H]3C[C@H]3C(=O)Nc3cc(C(=O)Nc4cc(C(=O)NCCCN(C)C)n(C)c4)n(C)c3)cn2C)cn1C`, the GI50 in the test with HT-29, in the test on M14, with CAKI-1, in the test on CCRF-CEM, with NCI/ADR-RES and with OVCAR-5 was > 100 µM (inactive) throughout. The GI50 in the test on NCI-H522, in the test with LOX IMVI, in the test on SF-539, in the test with SK-MEL-28, in the test on MOLT-4 and in the test with OVCAR-4 was > 100 µM (inactive) throughout. For the same compound, the GI50 in the test with ACHN, with HOP-62, with K562, in the test on NCI-H226, in the test with DU-145 and with MCF7 was > 100 µM (inactive) in each case.
Regarding `CC1(C)[C@@H]2C[C@H]1c1cnc(-c3ccccn3)cc1C2CCCCC[C@@H]1c2cc(-c3ccccn3)ncc2[C@@H]2C[C@H]1C2(C)C` (stereo partly drawn), the GI50 is 0.759 µM (active) with HT-29; 1.61 µM (inactive) in the test on M14; 0.628 µM (active) in the test with CAKI-1; 0.502 µM (active) with CCRF-CEM; 25.6 µM (inactive) in the test with NCI/ADR-RES; > 20.3 µM (inactive) in the test with OVCAR-5. Also, the GI50 with NCI-H522 is 1.71 µM (inactive); with LOX IMVI, 0.625 µM (active); with SF-539, 0.199 µM (active); with SK-MEL-28 it was 2.29 µM (inactive); with MOLT-4, 0.357 µM (active); with OVCAR-4 it was 0.384 µM (active). Also, the GI50 is 0.853 µM (active) in the test with UO-31; 1.82 µM (inactive) in the test with ACHN; 1.42 µM (inactive) in the test with HOP-62; 0.473 µM (active) in the test on K562; 1.23 µM (inactive) in the test on NCI-H226; 1.41 µM (inactive) in the test with DU-145. The GI50 with MCF7 is 0.809 µM (active).
